In PubChem BioAssay AID248 (DTP/NCI, 2004):
Values joined by “and” are separate entries in the source; they are usually repeats but may differ in a detail not shown here. Identical values can stand only once. Toxic doses and inconclusive results are not listed. Rule as the data show it: active = T/C of 150% or more; inactive = T/C below 125%.

Test system: L1210 leukemia ip in BDF1 mice, survival T/C
Assay: NCI In Vivo Anticancer Drug Screen. Data for tumor model L1210 Leukemia (intraperitoneal) in B6D2F1 (BDF1) mice
Conditions: endpoint: mean survival time, higher = longer survival
Outline: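 Each compound was tested against a transplantable tumor grown in mice. The endpoint was survival, with treated animals benchmarked against vehicle controls as a simple ratio.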

[1] = dose: 100.0 mg/kg/injection, schedule: Q01DX009 (ip), vehicle: Klucel (hydroxypropylcellulose) (HPC)
[2] = dose: 100.0 mg/kg/injection, schedule: Q04DX003 (ip), vehicle: Klucel (hydroxypropylcellulose) (HPC)
[3] = dose: 200.0 mg/kg/injection, schedule: Q01DX009 (ip), vehicle: Klucel (hydroxypropylcellulose) (HPC)
[4] = dose: 200.0 mg/kg/injection, schedule: Q04DX003 (ip), vehicle: Klucel (hydroxypropylcellulose) (HPC)
[5] = dose: 400.0 mg/kg/injection, schedule: Q04DX003 (ip), vehicle: Klucel (hydroxypropylcellulose) (HPC)
[6] = dose: 100.0 mg/kg/injection, schedule: Q04DX002 (ip), vehicle: Klucel (hydroxypropylcellulose) (HPC)
[7] = dose: 200.0 mg/kg/injection, schedule: Q04DX002 (ip), vehicle: Klucel (hydroxypropylcellulose) (HPC)
[8] = dose: 400.0 mg/kg/injection, schedule: Q04DX002 (ip), vehicle: Klucel (hydroxypropylcellulose) (HPC)
[9] = dose: 400.0 mg/kg/injection, schedule: Q01DX009 (ip), vehicle: Klucel (hydroxypropylcellulose) (HPC)
[10] = dose: 100.0 mg/kg/injection, schedule: Q01DX009 (ip), vehicle: saline with Tween-80
[11] = dose: 100.0 mg/kg/injection, schedule: Q04DX003 (ip), vehicle: saline with Tween-80
[12] = dose: 200.0 mg/kg/injection, schedule: Q01DX009 (ip), vehicle: saline with Tween-80
[13] = dose: 200.0 mg/kg/injection, schedule: Q04DX003 (ip), vehicle: saline with Tween-80
[14] = dose: 400.0 mg/kg/injection, schedule: Q01DX009 (ip), vehicle: saline with Tween-80
[15] = dose: 400.0 mg/kg/injection, schedule: Q04DX003 (ip), vehicle: saline with Tween-80
[16] = dose: 100.0 mg/kg/injection, schedule: Q01DX001 (ip), vehicle: saline
[17] = dose: 200.0 mg/kg/injection, schedule: Q01DX001 (ip), vehicle: saline
[18] = dose: 400.0 mg/kg/injection, schedule: Q01DX001 (ip), vehicle: saline
[19] = dose: 75.0 mg/kg/injection, schedule: Q01DX001 (ip), vehicle: saline
[20] = dose: 100.0 mg/kg/injection, schedule: Q01DX009 (ip), vehicle: saline
[21] = dose: 200.0 mg/kg/injection, schedule: Q01DX009 (ip), vehicle: saline
[22] = dose: 400.0 mg/kg/injection, schedule: Q01DX009 (ip), vehicle: saline
[23] = dose: 50.0 mg/kg/injection, schedule: Q01DX009 (ip), vehicle: saline
[24] = dose: 100.0 mg/kg/injection, schedule: Q04DX003 (ip), vehicle: saline
[25] = dose: 200.0 mg/kg/injection, schedule: Q04DX003 (ip), vehicle: saline
[26] = dose: 100.0 mg/kg/injection, schedule: Q01DX001 (ip), vehicle: Klucel (hydroxypropylcellulose) (HPC)
[27] = dose: 200.0 mg/kg/injection, schedule: Q01DX001 (ip), vehicle: Klucel (hydroxypropylcellulose) (HPC)
[28] = dose: 400.0 mg/kg/injection, schedule: Q01DX001 (ip), vehicle: Klucel (hydroxypropylcellulose) (HPC)

Measured: T/C

COc1ccc(OC(=O)Nc2cc(C)ccc2C)cc1
inactive: [1] 91 % of control | [2] 94 % of control | [3] 90 % of control | [4] 97 % of control | [5] 108 % of control

COc1ccc(C(=O)NCc2cccs2)cc1
inactive: [6] 91 % of control | [7] 102 % of control | [8] 97 % of control

CCOC(=O)Nc1ccccc1OCC
inactive: [1] 96 % of control | [3] 95 % of control | [9] 96 % of control

Cc1c(Cl)cccc1NC(=O)OCCCc1ccccc1
inactive: dose: 100.0 mg/kg/injection, schedule: Q01DX001 (ip), vehicle: saline with Tween-80 93 % of control | [10] 101 % of control and 104 % of control | dose: 100.0 mg/kg/injection, schedule: Q04DX002 (ip), vehicle: saline with Tween-80 96 % of control and 108 % of control | [11] 102 % of control | dose: 200.0 mg/kg/injection, schedule: Q01DX001 (ip), vehicle: saline with Tween-80 93 % of control | [12] 93 % of control and 96 % of control | dose: 200.0 mg/kg/injection, schedule: Q04DX002 (ip), vehicle: saline with Tween-80 108 % of control and 121 % of control | [13] 89 % of control | dose: 400.0 mg/kg/injection, schedule: Q01DX001 (ip), vehicle: saline with Tween-80 90 % of control | [14] 98 % of control and 90 % of control | dose: 400.0 mg/kg/injection, schedule: Q04DX002 (ip), vehicle: saline with Tween-80 97 % of control and 101 % of control | [15] 91 % of control

CCOC(=O)CCC(=O)OCC
inactive: [16] 95 % of control | [17] 95 % of control | [18] 93 % of control

C[N+](C)(CCO)CC(O)c1ccc(C(O)C[N+](C)(C)CCO)cc1 (stereo unspecified)
inactive: dose: 0.05 mg/kg/injection, schedule: Q04DX003 (ip), vehicle: saline 102 % of control | dose: 0.1 mg/kg/injection, schedule: Q04DX003 (ip), vehicle: saline 104 % of control | dose: 0.2 mg/kg/injection, schedule: Q04DX003 (ip), vehicle: saline 93 % of control

COc1ccc(C(=O)OCc2ccccc2CN2CCCCC2)cc1
inactive: [6] 102 % of control | [7] 102 % of control | [8] 86 % of control

CCCC[n+]1cccc(C(=O)c2ccccc2)c1
inactive: [19] 101 % of control

COc1cc(Cl)ccc1NC(=O)Oc1ccc(OCc2ccccc2)cc1
inactive: [1] 94 % of control | [3] 94 % of control | [9] 97 % of control

O=C(O)C(Cc1ccc(O)cc1)NC(=O)N(c1ccccc1)c1ccccc1 (stereo unspecified)
inactive: [16] 95 % of control | [17] 103 % of control | [18] 106 % of control

CCOC(=O)CCSc1ccc(NC)cc1
inactive: [20] 94 % of control | dose: 100.0 mg/kg/injection, schedule: Q04DX003 (ip), vehicle: acetone 102 % of control | [21] 96 % of control | dose: 200.0 mg/kg/injection, schedule: Q04DX003 (ip), vehicle: acetone 102 % of control | [22] 97 % of control | dose: 400.0 mg/kg/injection, schedule: Q04DX003 (ip), vehicle: acetone 105 % of control

CCN(CC)c1ccc(N=C2C=C(C(=O)Nc3ccc(S(C)(=O)=O)cc3)C(=O)c3ccccc32)c(C)c1
inactive: [16] 92 % of control | [17] 96 % of control | [18] 96 % of control

CC(C)(C)C(=O)C/C=N/Nc1ccc([N+](=O)[O-])cc1[N+](=O)[O-]
inactive: [16] 96 % of control | [17] 106 % of control | [18] 100 % of control

CCOC(=O)CC1C(=O)Oc2ccc(O)cc21 (stereo unspecified) (tested in a mixture with another compound)
inactive: [10] 100 % of control | [11] 96 % of control | [12] 97 % of control | [13] 110 % of control | [14] 90 % of control | [15] 94 % of control

CC(C)NC(=O)Oc1ccc(Br)cc1Br
inactive: [1] 109 % of control | [3] 104 % of control | [9] 113 % of control

CC1=CP(=O)(O)CC1
inactive: [23] 113 % of control | [20] 103 % of control | [24] 95 % of control | [21] 98 % of control | [25] 93 % of control

CNC(=O)Oc1cccc(C=O)c1
inactive: dose: 100.0 mg/kg/injection, schedule: Q01DX001 (ip), vehicle: other 102 % of control | dose: 200.0 mg/kg/injection, schedule: Q01DX001 (ip), vehicle: other 117 % of control | dose: 400.0 mg/kg/injection, schedule: Q01DX001 (ip), vehicle: other 102 % of control

COc1ccc(NC(C)=O)cc1S(=O)(=O)F
inactive: [26] 93 % of control | [2] 102 % of control | [27] 88 % of control | [4] 104 % of control | [28] 93 % of control | [5] 96 % of control

CN(Cc1cccc(Cl)c1)C(=O)NC(C)(C)C
inactive: [6] 100 % of control | [7] 96 % of control | [8] 100 % of control

CC(=O)Nc1ncc(/C=C/C=C/c2ccc([N+](=O)[O-])cc2)c(NC(C)=O)n1
inactive: [26] 91 % of control | [27] 86 % of control | [28] 87 % of control

Cc1cc(SCC(=O)c2ccc(Br)cc2)cc(C)[o+]1
inactive: dose: 25.0 mg/kg/injection, schedule: Q01DX009 (ip), vehicle: saline 92 % of control | [23] 107 % of control | [20] 100 % of control | [24] 97 % of control | [25] 92 % of control

CCN(CC)CCN(C)CC(=O)Nc1ccccc1C
inactive: [19] 100 % of control | dose: 150.0 mg/kg/injection, schedule: Q01DX001 (ip), vehicle: saline 103 % of control | dose: 300.0 mg/kg/injection, schedule: Q01DX001 (ip), vehicle: saline 101 % of control

O=C(SCCNC(=O)N1CCCCC1)Sc1ccccc1
inactive: [11] 105 % of control | [13] 101 % of control | [15] 114 % of control

COC(=O)C(CC/C(=N\NC(N)=O)c1ccccc1)C(=O)OC
inactive: dose: 50.0 mg/kg/injection, schedule: Q01DX009 (ip), vehicle: saline with Tween-80 98 % of control | [10] 98 % of control | [12] 91 % of control

NC(=O)c1ccccc1NC(=O)CCCOc1ccccc1
inactive: [26] 100 % of control | [2] 94 % of control | [27] 93 % of control | [4] 97 % of control | [28] 96 % of control

COc1ccc(C(=O)NC(=S)Nc2ccccc2F)cc1
inactive: [1] 93 % of control | [2] 94 % of control | [3] 90 % of control | [4] 93 % of control | [5] 94 % of control

CC1=C2CC3CCC(C)C2(CC1)C3(C)C (stereo unspecified)
inactive: [20] 88 % of control | [22] 87 % of control
